From the supplement of paper PMC8671470

Columns and labels:
Assay in all cases: cell viability (% survival relative to DMSO control); higher = less cytotoxic
Conditions in all cases: 72 h
BV-173 = tested on: BV-173
Experimental: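 8x8 drug-combination matrices (0–5000 nM; rosiglitazone and lestaurtinib 0–1000 nM) were run in BV-173 cells for 72 h with CellTiter-Glo read-out. Survival is normalised to DMSO and 10 µM bortezomib and clipped at 100%.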

Mono-Mac-6 = tested on: Mono-Mac-6
Experimental: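 8x8 drug-combination matrices (0–5000 nM; rosiglitazone and lestaurtinib 0–1000 nM) were run in Mono-Mac-6 cells for 72 h with CellTiter-Glo read-out. Survival is normalised to DMSO and 10 µM bortezomib and clipped at 100%.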

HL-60 = tested on: HL-60
Experimental: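 8x8 drug-combination matrices (0-5000 nM; rosiglitazone and lestaurtinib 0-1000 nM) were run in HL-60 cells for 72 h with a CellTiter-Glo read-out. Survival is normalised to DMSO and 10 µM bortezomib and clipped at 100%. Bliss synergy was analysed in SynergyFinder.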

CN(C)C(=O)n1nnnc1Cc1ccc(-c2ccccc2)cc1 + CCOC(=O)N1c2ccc(C(F)(F)F)cc2[C@@H](N(Cc2cc(C(F)(F)F)cc(C(F)(F)F)c2)C(=O)OC)C[C@H]1CC [Torcetrapib]
cell viability [%]
Conditions	drug1 concentration 5 nM	drug1 concentration 10 nM	drug1 concentration 50 nM	drug1 concentration 100 nM	drug1 concentration 500 nM	drug1 concentration 1000 nM	drug1 concentration 5000 nM
BV-173, drug2 concentration 5 nM	> 100	> 100	> 100	83.6	86.7	61	-1.29
BV-173, drug2 concentration 10 nM	79.6	99.9	97.9	77.9	64.3	67	-0.12
BV-173, drug2 concentration 50 nM	70.5	94.4	69.5	70.6	61	53.7	1.13
BV-173, drug2 concentration 100 nM	62.8	69	80.1	87.3	> 100	45.6	-0.25
BV-173, drug2 concentration 500 nM	73.5	> 100	> 100	83.8	95.5	86	0.45
BV-173, drug2 concentration 1000 nM	80.8	68.8	94.8	94.5	> 100	71.3	1.28
BV-173, drug2 concentration 5000 nM	61.4	64.7	62	69.6	77.6	24.2	0
HL-60, drug2 concentration 5 nM	89.2	> 100	64.3	> 100	94.3	> 100	8.91
HL-60, drug2 concentration 10 nM	> 100	> 100	> 100	> 100	> 100	90	15.4
HL-60, drug2 concentration 50 nM	81.6	> 100	86.8	80.8	79.3	87.4	6.94
HL-60, drug2 concentration 100 nM	91.3	> 100	> 100	82.7	> 100	80	14.4
HL-60, drug2 concentration 500 nM	> 100	> 100	> 100	> 100	> 100	85	6.21
HL-60, drug2 concentration 1000 nM	> 100	> 100	> 100	> 100	98.3	> 100	13
HL-60, drug2 concentration 5000 nM	> 100	> 100	> 100	> 100	> 100	78.8	0
Mono-Mac-6, drug2 concentration 5 nM	> 100	> 100	> 100	> 100	82.7	86.1	-0.88
Mono-Mac-6, drug2 concentration 10 nM	93	86.3	> 100	92	69	90.7	0.43
Mono-Mac-6, drug2 concentration 50 nM	> 100	89.7	93.7	95.9	> 100	58.1	1.57
Mono-Mac-6, drug2 concentration 100 nM	89	> 100	> 100	> 100	> 100	96.6	0.14
Mono-Mac-6, drug2 concentration 500 nM	91.9	> 100	> 100	97	> 100	> 100	0.52
Mono-Mac-6, drug2 concentration 1000 nM	99.7	86.5	98.8	> 100	> 100	> 100	2.08
Mono-Mac-6, drug2 concentration 5000 nM	90.6	88.3	> 100	93.4	> 100	74.2	0

Oc1ncc(F)c(O)n1 [5-fluorouracil] + C[C@]12O[C@H](C[C@]1(O)CO)n1c3ccccc3c3c4c(c5c6ccccc6n2c5c31)CNC4=O [Lestaurtinib]
cell viability [%]
Conditions	drug1 concentration 5 nM	drug1 concentration 10 nM	drug1 concentration 50 nM	drug1 concentration 100 nM	drug1 concentration 500 nM	drug1 concentration 1000 nM	drug1 concentration 5000 nM
BV-173, drug2 concentration 1 nM	> 100	> 100	> 100	> 100	86.1	79.2	47.6
BV-173, drug2 concentration 5 nM	> 100	81.2	85.7	86.6	> 100	82.8	69.9
BV-173, drug2 concentration 10 nM	93	95.9	87.7	> 100	72.4	74.2	71.8
BV-173, drug2 concentration 50 nM	60.2	59.9	50	68.2	58.5	59.2	35
BV-173, drug2 concentration 100 nM	68	43.6	46.5	47.5	40.6	44.3	20.2
BV-173, drug2 concentration 500 nM	18.1	36.8	20.9	25.8	20.4	20.7	9.65
BV-173, drug2 concentration 1000 nM	19.6	37.9	24.6	30.9	42.5	27.9	8.5
HL-60, drug2 concentration 1 nM	> 100	> 100	53	> 100	89.7	66.2	62.9
HL-60, drug2 concentration 5 nM	> 100	79.6	> 100	71.6	91.6	64.7	80.9
HL-60, drug2 concentration 10 nM	73.2	98.7	> 100	> 100	84.2	50.3	66.5
HL-60, drug2 concentration 50 nM	72	85.6	56.1	67.8	53.5	77.1	43
HL-60, drug2 concentration 100 nM	60.5	67.5	68.8	63.6	74.3	51.8	32.6
HL-60, drug2 concentration 500 nM	32.8	32.6	48.9	41.5	35.7	33.5	26.1
HL-60, drug2 concentration 1000 nM	8.89	19.8	19.4	20.8	52.9	25.7	0
Mono-Mac-6, drug2 concentration 1 nM	> 100	> 100	> 100	98	81.7	66.8	43.8
Mono-Mac-6, drug2 concentration 5 nM	> 100	62.4	76.5	65.3	69.7	54.7	48
Mono-Mac-6, drug2 concentration 10 nM	58.5	59.6	61.9	68	42.9	54.4	50.9
Mono-Mac-6, drug2 concentration 50 nM	20.5	20.9	19	21.8	19.7	19.4	21.1
Mono-Mac-6, drug2 concentration 100 nM	15.4	11.6	14.2	12.9	8.95	10.9	7.36
Mono-Mac-6, drug2 concentration 500 nM	1.8	1.6	3.44	3.7	1.89	2.85	1.13
Mono-Mac-6, drug2 concentration 1000 nM	-0.9	1.2	0.62	2.92	5.56	0.83	0

CN(C)CCNC(=O)c1cccn2c(=O)c3cc4ccccc4cc3nc12 [Bmh-21] + O=C(O)CC[N+](=O)[O-] [3-nitropropionic acid]
cell viability [%]
Conditions	drug1 concentration 5 nM	drug1 concentration 10 nM	drug1 concentration 50 nM	drug1 concentration 100 nM	drug1 concentration 500 nM	drug1 concentration 1000 nM	drug1 concentration 5000 nM
BV-173, drug2 concentration 5 nM	> 100	> 100	> 100	95.6	6.08	1.91	0.1
BV-173, drug2 concentration 10 nM	94.1	> 100	> 100	> 100	19.6	3.29	-1.01
BV-173, drug2 concentration 50 nM	> 100	79.4	83.4	> 100	0.68	35.3	-0.78
BV-173, drug2 concentration 100 nM	82.9	> 100	> 100	94.8	2.69	-0.53	0.59
BV-173, drug2 concentration 500 nM	> 100	86.6	88.3	> 100	38.2	68	-0.99
BV-173, drug2 concentration 1000 nM	92	> 100	> 100	66.9	10.4	-1.13	0.46
BV-173, drug2 concentration 5000 nM	> 100	> 100	> 100	99.5	0.21	-1.32	0
HL-60, drug2 concentration 5 nM	76.1	> 100	> 100	> 100	34.7	29.4	11.4
HL-60, drug2 concentration 10 nM	85.5	> 100	> 100	89.3	54.7	48.5	34
HL-60, drug2 concentration 50 nM	90.2	83.1	> 100	> 100	57	52.6	7.17
HL-60, drug2 concentration 100 nM	> 100	> 100	> 100	> 100	45.9	28.8	4.7
HL-60, drug2 concentration 500 nM	> 100	> 100	81.7	> 100	53.9	70	13.8
HL-60, drug2 concentration 1000 nM	> 100	62.9	> 100	> 100	77.4	1.67	50.4
HL-60, drug2 concentration 5000 nM	> 100	> 100	68.7	> 100	22	24.2	0
Mono-Mac-6, drug2 concentration 5 nM	76.5	> 100	> 100	83.1	56.5	60.2	63.5
Mono-Mac-6, drug2 concentration 10 nM	> 100	> 100	> 100	> 100	70.1	83.3	45.7
Mono-Mac-6, drug2 concentration 50 nM	> 100	91.1	87	> 100	63.6	67.4	49.9
Mono-Mac-6, drug2 concentration 100 nM	98.2	> 100	> 100	79.8	73.9	74.2	> 100
Mono-Mac-6, drug2 concentration 500 nM	90.6	> 100	91.9	> 100	> 100	72.2	44.8
Mono-Mac-6, drug2 concentration 1000 nM	96.3	97	88.2	90.7	> 100	83.4	83.5
Mono-Mac-6, drug2 concentration 5000 nM	> 100	76.8	> 100	> 100	67.5	61	69.3
